Measured values: PubChem BioAssay AID2060615 (Molecular Pharmacology Branch, DTP, NCI, 2025)

Test system: 496974-208-R-J2-PDC complex spheroids, growth % test/control
Assay: Anticancer human tumor 496974-208-R-J2-PDC patient-derived pancreatic carcinoma cell line growth inhibition [CLK]
Settings: for IC50: curve of first compound; for viability, T/C: stronger effect = lower value
Procedure, shortened: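 Patient-derived tumor cells grown as complex spheroids with HUVEC endothelial cells and mesenchymal stem cells, treated with drug combinations. Concentrations descend in half-log steps from near clinical Cmax, or from 10 microM if Cmax unknown.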

[1] = second compound 0.0316 µM, first compound 0.0316 µM
[2] = second compound 0.0316 µM, first compound 0.1 µM
[3] = second compound 0.0316 µM, first compound 0.316 µM
[4] = second compound 0.0316 µM, first compound 1 µM
[5] = second compound 0.0316 µM, first compound 3.16 µM
[6] = second compound 0.0316 µM, first compound 10 µM
[7] = second compound 0.1 µM, first compound 0.0316 µM
[8] = second compound 0.1 µM, first compound 0.1 µM
[9] = second compound 0.1 µM, first compound 0.316 µM
[10] = second compound 0.1 µM, first compound 1 µM
[11] = second compound 0.1 µM, first compound 3.16 µM
[12] = second compound 0.1 µM, first compound 10 µM
[13] = second compound 0.316 µM, first compound 0.0316 µM
[14] = second compound 0.316 µM, first compound 0.1 µM
[15] = second compound 0.316 µM, first compound 0.316 µM
[16] = second compound 0.316 µM, first compound 1 µM
[17] = second compound 0.316 µM, first compound 3.16 µM
[18] = second compound 0.316 µM, first compound 10 µM
[19] = second compound 1 µM, first compound 0.0316 µM
[20] = second compound 1 µM, first compound 0.1 µM
[21] = second compound 1 µM, first compound 0.316 µM
[22] = second compound 1 µM, first compound 1 µM
[23] = second compound 1 µM, first compound 3.16 µM
[24] = second compound 1 µM, first compound 10 µM
[25] = second compound 3.16 µM, first compound 0.0316 µM
[26] = second compound 3.16 µM, first compound 0.1 µM
[27] = second compound 3.16 µM, first compound 0.316 µM
[28] = second compound 3.16 µM, first compound 1 µM
[29] = second compound 3.16 µM, first compound 3.16 µM
[30] = second compound 3.16 µM, first compound 10 µM
[31] = second compound 10 µM, first compound 0.0316 µM
[32] = second compound 10 µM, first compound 0.1 µM
[33] = second compound 10 µM, first compound 0.316 µM
[34] = second compound 10 µM, first compound 1 µM
[35] = second compound 10 µM, first compound 3.16 µM
[36] = second compound 10 µM, first compound 10 µM
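Also: spheroids exposed to the drugs for 7 days before readout.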
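For viability, T/C in this document: 100% = DMSO vehicle control wells.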

`C#Cc1c(F)ccc2cc(O)cc(-c3ncc4c(N5CC6CCC(C5)N6)nc(OCC56CCCN5CC(F)C6)nc4c3F)c12` (stereo not drawn) + CN1CCN(c2cc(C(=O)Nc3cc4cc(-c5cnn(C)c5)ccc4cn3)ccn2)CC1 gave an IC50 (second compound 0.0316 µM) of 49.4 nM, an IC50 (second compound 0.1 µM) of less than 31.6 nM and an IC50 (second compound 0.316 µM) of less than 31.6 nM. The IC50 (second compound 1 µM) was less than 31.6 nM, the IC50 (second compound 3.16 µM) was less than 31.6 nM and the IC50 (second compound 10 µM) was less than 31.6 nM. It also gave a viability, T/C [1] of 54.9%, a viability, T/C [2] of 41.2% and a viability, T/C [3] of 39.9%. It also gave a viability, T/C [4] of 37.2%, a viability, T/C [5] of 33.5% and a viability, T/C [6] of 35.1%. For the same molecule, the viability, T/C [7] was 37.7%, the viability, T/C [8] was 34.7% and the viability, T/C [9] was 30.2%. The viability, T/C [10] was 25.8%, the viability, T/C [11] was 25.2% and the viability, T/C [12] was 22.8%. For the same molecule, the viability, T/C [13] was 6.34%, the viability, T/C [14] was 7.18% and the viability, T/C [15] was 5.55%. The viability, T/C [16] was 5.05%, the viability, T/C [17] was 4.85% and the viability, T/C [18] was 4.28%. The viability, T/C [19] was 0.24%, the viability, T/C [20] was 1.36% and the viability, T/C [21] was 0.31%. It also gave a viability, T/C [22] of 0.34%, a viability, T/C [23] of 0.22% and a viability, T/C [24] of 0.33%. The viability, T/C [25] was 0.26%, the viability, T/C [26] was 1.39% and the viability, T/C [27] was 0.4%. For the same molecule, the viability, T/C [28] was 0.27%, the viability, T/C [29] was 0.23% and the viability, T/C [30] was 1.06%. The viability, T/C [31] was 0.28%, the viability, T/C [32] was 0.2% and the viability, T/C [33] was 0.22%. For the same molecule, the viability, T/C [34] was 0.2%, the viability, T/C [35] was 0.21% and the viability, T/C [36] was 1.87%.

`CC(CO)NC(=O)c1cc(-c2ccc(Cl)cc2)nn(-c2cnn(C)c2)c1=O` (stereo not drawn) + CN1CCN(c2cc(C(=O)Nc3cc4cc(-c5cnn(C)c5)ccc4cn3)ccn2)CC1 was tested, and the IC50 (second compound 0.0316 µM) was greater than 10000 nM, the IC50 (second compound 0.1 µM) was greater than 10000 nM and the IC50 (second compound 0.316 µM) was less than 31.6 nM. The IC50 (second compound 1 µM) was less than 31.6 nM, the IC50 (second compound 3.16 µM) was less than 31.6 nM and the IC50 (second compound 10 µM) was less than 31.6 nM. It also gave a viability, T/C [1] of 100%, a viability, T/C [2] of 103% and a viability, T/C [3] of 104%. The viability, T/C [4] was 97.6%, the viability, T/C [5] was 79.8% and the viability, T/C [6] was 53.3%. It also gave a viability, T/C [7] of 80.9%, a viability, T/C [8] of 90.1% and a viability, T/C [9] of 73.7%. The viability, T/C [10] was 80%, the viability, T/C [11] was 71.3% and the viability, T/C [12] was 55%. It also gave a viability, T/C [13] of 6.47%, a viability, T/C [14] of 7.73% and a viability, T/C [15] of 7.09%. For the same molecule, the viability, T/C [16] was 6.92%, the viability, T/C [17] was 7.31% and the viability, T/C [18] was 10.6%. The viability, T/C [19] was 0.48%, the viability, T/C [20] was 0.63% and the viability, T/C [21] was 0.82%. The viability, T/C [22] was 0.41%, the viability, T/C [23] was 0.57% and the viability, T/C [24] was 3.08%. It also gave a viability, T/C [25] of 0.49%, a viability, T/C [26] of 0.49% and a viability, T/C [27] of 0.55%. For the same molecule, the viability, T/C [28] was 0.4%, the viability, T/C [29] was 1% and the viability, T/C [30] was 0.92%. The viability, T/C [31] was 0.3%, the viability, T/C [32] was 0.27% and the viability, T/C [33] was 1.54%. For the same molecule, the viability, T/C [34] was 0.29%, the viability, T/C [35] was 0.35% and the viability, T/C [36] was 1.18%.

`CC(Nc1ccc2c(c1)OCCn1cc(N3C(=O)OCC3C(F)F)nc1-2)C(N)=O` (stereo not drawn) + CN1CCN(c2cc(C(=O)Nc3cc4cc(-c5cnn(C)c5)ccc4cn3)ccn2)CC1 gave an IC50 (second compound 0.0316 µM) of 166 nM, an IC50 (second compound 0.1 µM) of 101 nM and an IC50 (second compound 0.316 µM) of less than 31.6 nM. The IC50 (second compound 1 µM) was less than 31.6 nM, the IC50 (second compound 3.16 µM) was less than 31.6 nM and the IC50 (second compound 10 µM) was less than 31.6 nM. For the same molecule, the viability, T/C [1] was 86.4%, the viability, T/C [2] was 60.1% and the viability, T/C [3] was 37.2%. The viability, T/C [4] was 22%, the viability, T/C [5] was 13.6% and the viability, T/C [6] was 8.34%. It also gave a viability, T/C [7] of 64%, a viability, T/C [8] of 51.2% and a viability, T/C [9] of 32.3%. For the same molecule, the viability, T/C [10] was 20.9%, the viability, T/C [11] was 14.5% and the viability, T/C [12] was 8.7%. The viability, T/C [13] was 7.37%, the viability, T/C [14] was 5.41% and the viability, T/C [15] was 2.52%. The viability, T/C [16] was 2.18%, the viability, T/C [17] was 2.7% and the viability, T/C [18] was 2.59%. For the same molecule, the viability, T/C [19] was 0.4%, the viability, T/C [20] was 0.53% and the viability, T/C [21] was 2.57%. It also gave a viability, T/C [22] of 0.36%, a viability, T/C [23] of 1.09% and a viability, T/C [24] of 1.26%. For the same molecule, the viability, T/C [25] was 0.43%, the viability, T/C [26] was 0.34% and the viability, T/C [27] was 1.75%. The viability, T/C [28] was 0.38%, the viability, T/C [29] was 0.52% and the viability, T/C [30] was 0.5%. For the same molecule, the viability, T/C [31] was 0.2%, the viability, T/C [32] was 0.58% and the viability, T/C [33] was 1.4%. For the same molecule, the viability, T/C [34] was 0.27%, the viability, T/C [35] was 0.59% and the viability, T/C [36] was 0.57%.

For `COc1c(OCCCN2CCOCC2)ccc2c3n(c(=NC(=O)c4cnc(N)nc4)nc12)CCN3` + CN1CCN(c2cc(C(=O)Nc3cc4cc(-c5cnn(C)c5)ccc4cn3)ccn2)CC1, the IC50 (second compound 0.0316 µM) was 15.8 nM, the IC50 (second compound 0.1 µM) was 13.3 nM and the IC50 (second compound 0.316 µM) was less than 3.16 nM. It also gave an IC50 (second compound 1 µM) of less than 3.16 nM, an IC50 (second compound 3.16 µM) of less than 3.16 nM and an IC50 (second compound 10 µM) of less than 3.16 nM. For the same molecule, the viability, T/C (second compound 0.0316 µM, first compound 0.00316 µM) was 84.8%, the viability, T/C (second compound 0.0316 µM, first compound 0.01 µM) was 61.2% and the viability, T/C [1] was 33.2%. It also gave a viability, T/C [2] of 14.5%, a viability, T/C [3] of 7% and a viability, T/C [4] of 4.1%. For the same molecule, the viability, T/C (second compound 0.1 µM, first compound 0.00316 µM) was 65.5%, the viability, T/C (second compound 0.1 µM, first compound 0.01 µM) was 58.2% and the viability, T/C [7] was 27.1%. For the same molecule, the viability, T/C [8] was 11.5%, the viability, T/C [9] was 8.48% and the viability, T/C [10] was 3.16%. It also gave a viability, T/C (second compound 0.316 µM, first compound 0.00316 µM) of 5.23%, a viability, T/C (second compound 0.316 µM, first compound 0.01 µM) of 3.99% and a viability, T/C [13] of 2.13%. For the same molecule, the viability, T/C [14] was 1.22%, the viability, T/C [15] was 0.53% and the viability, T/C [16] was 0.56%. The viability, T/C (second compound 1 µM, first compound 0.00316 µM) was 0.41%, the viability, T/C (second compound 1 µM, first compound 0.01 µM) was 0.62% and the viability, T/C [19] was 1.84%. For the same molecule, the viability, T/C [20] was 0.29%, the viability, T/C [21] was 0.49% and the viability, T/C [22] was 1.95%. For the same molecule, the viability, T/C (second compound 3.16 µM, first compound 0.00316 µM) was 0.35%, the viability, T/C (second compound 3.16 µM, first compound 0.01 µM) was 1.42% and the viability, T/C [25] was 0.35%. It also gave a viability, T/C [26] of 0.45%, a viability, T/C [27] of 1.33% and a viability, T/C [28] of 0.46%. The viability, T/C (second compound 10 µM, first compound 0.00316 µM) was 0.26%, the viability, T/C (second compound 10 µM, first compound 0.01 µM) was 0.83% and the viability, T/C [31] was 0.25%. It also gave a viability, T/C [32] of 0.19%, a viability, T/C [33] of 0.4% and a viability, T/C [34] of 1.34%.
